Each structure is given as a SMILES string. Where a name gives a salt, the structure may show the parent alone.

The melting point is the temperature of the solid-liquid transition.

`O=C(Cc1c2c(nn1-c1ccccc1)c(=O)[nH]c1ccccc12)N1CCN(Cc2ccccc2)CC1` gave a melting point of 283 to 285 °C.
The result for `O=C(Cc1c2c(nn1-c1ccccc1)c(Cl)nc1ccccc12)N1CCN(Cc2ccccc2)CC1` reads 210.5 to 211.5 °C.
The result for `Clc1nc2ccccc2c2c(CCC3CCNCC3)n(-c3ccccc3)nc12` (as salt: HCl) [Example 7, 4-Chloro-2-phenyl-1-(2-piperidin-4-ylethyl)-2H-pyrazolo[3,4-c]quinoline] reads 194 °C; that for `CCCn1nc2c(Cl)nc3ccccc3c2c1C` [Example 1, 4-Chloro-1-methyl-2-propyl-2H-pyrazolo[3,4-c]quinoline], 145 to 147 °C.
The result for `CCn1nc2c(OC)nc3ccccc3c2c1CO` [Example 5, (2-Ethyl-4-methoxy-2H-pyrazolo[3,4-c]quinolin-1-yl)methanol] reads 219 to 220 °C.
`O=c1[nH]c2ccccc2c2c(CCC3CCNCC3)n(-c3ccccc3)nc12` [Example 6, 2-Phenyl-1-(2-piperidin-4-ylethyl)-2,5-dihydro-4H-pyrazolo[3,4-c]quinolin-4-one] had a melting point of 250 to 252 °C.
For `CC(C)(C)OC(=O)N1CCC(CC(O)c2c3c(nn2-c2ccccc2)c(=O)[nH]c2ccccc23)CC1` (stereo not shown) [Example 8, tert-Butyl 4-[2-hydroxy-2-(4-oxo-2-phenyl-4,5-dihydro-2H-pyrazolo[3,4-c]quinolin-1-yl)ethyl]piperidine-1-carboxylate], the melting point was 253 to 254 °C.
The result for `O=c1[nH]c2ccccc2c2c(C(O)CC3CCNCC3)n(-c3ccccc3)nc12` (stereo not shown) [Example 9, 1-(1-Hydroxy-2-piperidin-4-ylethyl)-2-phenyl-2,5-dihydro-4H-pyrazolo[3,4-c]quinolin-4-one] reads 258 to 261 °C; that for `O=c1[nH]c2ccccc2c2c(C(O)CC3CCCCC3)n(-c3ccccc3)nc12` (stereo not shown) [Example 10, 1-(2-Cyclohexyl-1-hydroxyethyl)-2-phenyl-2,5-dihydro-4H-pyrazolo[3,4-c]quinolin-4-one], 254 to 259 °C.
Under `Cc1c2c(nn1-c1ccccc1)c(=O)[nH]c1ccccc12` [Example 11, 1-Methyl-2-phenyl-2,5-dihydro-4H-pyrazolo[3,4-c]quinolin-4-one] stands greater than 250 °C; under `Cc1c2c(nn1-c1ccccc1)c(Cl)nc1ccccc12` [Example 12, 4-Chloro-1-methyl-2-phenyl-2H-pyrazolo[3,4-c]quinoline], 208 to 209 °C; under `Cc1c2c(cnc3ccccc32)nn1-c1ccccc1` [Example 13, 1-Methyl-2-phenyl-2H-pyrazolo[3,4-c]quinoline], 128 to 130 °C.
The result for `CCc1c2c(nn1-c1ccccc1)c(=O)[nH]c1ccccc12` [Example 14, 1-Ethyl-2-phenyl-2,5-dihydro-4H-pyrazolo[3,4-c]quinolin-4-one] reads 331 to 334 °C; that for `CCc1c2c(nn1-c1ccccc1)c(Cl)nc1ccccc12` [Example 15, 4-Chloro-1-ethyl-2-phenyl-2H-pyrazolo[3,4-c]quinoline], 207 to 209 °C; that for `CCCCc1c2c(nn1-c1ccccc1)c(Cl)nc1ccccc12` [Example 16, 1-Butyl-4-chloro-2-phenyl-2H-pyrazolo[3,4-c]quinoline], 239 to 243 °C.
In turn, `CCOC(=O)Cc1c2c(nn1CC)c(=O)[nH]c1ccccc12` [Example 17, Ethyl (2-ethyl-4-oxo-4,5-dihydro-2H-pyrazolo[3,4-c]quinolin-1-yl)acetate] had a melting point of 233 to 235 °C.
The result for `CCOC(=O)Cc1c2c(nn1-c1ccccc1)c(=O)[nH]c1ccccc12` [Example 18, Ethyl (4-oxo-2-phenyl-4,5-dihydro-2H-pyrazolo[3,4-c]quinolin-1-yl)acetate] reads 301 to 303 °C.
The result for `O=c1[nH]c2ccccc2c2c(CCO)n(-c3ccccc3)nc12` [Example 20, 1-(2-Hydroxyethyl)-2-phenyl-2,5-dihydro-4H-pyrazolo[3,4-c]quinolin-4-one] reads 310 to 312 °C; that for `Clc1nc2ccccc2c2c(CCN3CCN(Cc4ccccc4)CC3)n(-c3ccccc3)nc12` [Example 23, 1-[2-(4-Benzylpiperazin-1-yl)ethyl]-4-chloro-2-phenyl-2H-pyrazolo[3,4-c]quinoline], 75 to 77 °C.
The result for `O=c1[nH]c2ccccc2c2c(CCN3CCN(Cc4ccccc4)CC3)n(-c3ccccc3)nc12` [Example 24, 1-[2-(4-Benzylpiperazin-1-yl)ethyl]-2-phenyl-2,5-dihydro-4H-pyrazolo[3,4-c]quinolin-4-one] reads 211 to 212.5 °C; that for `CC(C)(C)OC(=O)N1CCC(CCc2c3c(nn2C(C)(C)C)c(=O)[nH]c2ccccc23)CC1` [Example 25, tert-Butyl 4-[2-(2-tert-butyl-4-oxo-4,5-dihydro-2H-pyrazolo[3,4-c]quinolin-1-yl)ethyl]piperidine-1-carboxylate], 223 to 225 °C.
In the case of `CC(C)(C)n1nc2c(=O)[nH]c3ccccc3c2c1CO` [Example 26, 2-tert-Butyl-1-(hydroxymethyl)-2,5-dihydro-4H-pyrazolo[3,4-c]quinolin-4-one], the melting point was 295 to 297 °C.
`CC(C)Cc1c2c(nn1C)c(O)nc1ccccc12` [Example 27, 1-Isobutyl-2-methyl-2H-pyrazolo[3,4-c]quinolin-4-ol] showed a melting point greater than 280 °C.
Under `CCCc1c2c(nn1-c1ccccc1)c(=O)[nH]c1ccccc12` [Example 28, 2-Phenyl-1-propyl-2,5-dihydro-4H-pyrazolo[3,4-c]quinolin-4-one] stands greater than 300 °C; under `CCCn1nc2c(O)nc3ccccc3c2c1CC(C)(C)O` [Example 29, 1-(2-Hydroxy-2-methylpropyl)-2-propyl-2H-pyrazolo[3,4-c]quinolin-4-ol], 294 to 296 °C.

The record behind these values is US8138173B2, “Pyrazolo[3,4-C]quinolines, pyrazolo[3,4-C]naphthyridines, analogs thereof, and methods” (3M Innovative Properties Company, priority 2005, dated 2012).
